Experimental data as given in patent US20250009763A1, “METHODS FOR EXTENDING LIFESPAN AND/OR DELAYING AGING” (priority 2023, published 2025).

Target: T1, SIR2/SIRT1 (Homo sapiens, UniProt Q96EB6)
T1 construct: purchased Enzo Life Sciences, Inc
T1 sequence (Q96EB6 2-747 limits assumed): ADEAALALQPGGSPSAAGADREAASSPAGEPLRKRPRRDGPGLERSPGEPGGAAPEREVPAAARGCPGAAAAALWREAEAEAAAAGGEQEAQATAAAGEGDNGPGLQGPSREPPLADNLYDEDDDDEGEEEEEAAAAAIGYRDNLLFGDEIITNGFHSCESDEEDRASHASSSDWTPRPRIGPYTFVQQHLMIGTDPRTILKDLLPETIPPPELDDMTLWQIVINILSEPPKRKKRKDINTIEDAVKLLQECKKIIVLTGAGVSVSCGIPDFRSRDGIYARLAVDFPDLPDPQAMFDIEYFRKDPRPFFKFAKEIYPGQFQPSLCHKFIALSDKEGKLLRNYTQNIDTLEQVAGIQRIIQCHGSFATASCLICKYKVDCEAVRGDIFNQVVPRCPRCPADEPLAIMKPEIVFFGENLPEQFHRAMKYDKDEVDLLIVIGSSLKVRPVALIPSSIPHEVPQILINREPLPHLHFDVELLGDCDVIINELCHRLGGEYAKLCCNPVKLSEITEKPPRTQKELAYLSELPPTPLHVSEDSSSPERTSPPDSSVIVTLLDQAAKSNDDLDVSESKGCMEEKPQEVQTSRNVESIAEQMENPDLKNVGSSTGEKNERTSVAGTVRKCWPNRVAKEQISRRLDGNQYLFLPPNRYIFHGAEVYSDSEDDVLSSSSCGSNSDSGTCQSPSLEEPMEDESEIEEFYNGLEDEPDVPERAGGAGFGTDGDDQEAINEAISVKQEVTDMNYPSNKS
Experiment: SIR2/SIRT1 activity assay (SIRT1 fluorometric drug discovery kit)
Format: biochemical
Conditions: SIRT1 activity assay kit; FIG. 2K
Method: The activity of SIR2/SIRT1 was assessed using a SIRT1 fluorometric drug discovery kit (Enzo Life Sciences, Inc.), in accordance with the manufacturer's instructions. Fluorescence was excited at 360 nm and emitted at 460 nm.

In the case of `CCC(CC[C@@H](C)C1CCC2C3CC(=O)[C@H]4C[C@@H](O)CC[C@]4(C)C3CC[C@@]21C)C(C)C` (stereo in doubt) [PN6, (24S)-3β-hydroxy-5α-stigmastan-6-one], the SIRT1 activity is reported as “directly increase the SIRT1 activity”.
